Where a name gives a salt, the structure may show the parent alone. Read-outs that look alike come from different tables or passages of the source.
Key:
[1] = test system: Human B lymphoblastoid cells (Jiyoye); experiment: Cell based Lip10 assay (lip10 accumulation, anti-CD74 ELISA); settings: 24 hours, relative to E64d/LHVS-treated cells, read-out: pEC50 (negative logarithm of the EC50 concentration), lip10 assay (converted)
Description: Human B lymphoblastoid cells (Jiyoye) were cultured in RPMI 1640 medium at a density of 500 000 cells/ml in 24-well plates. Cells were treated with a concentration range of compounds (0.001-10 μM) and vehicle alone (DMSO, 0.1% v/v). In order to generate positive control treatments separate wells were treated with 10 μM E64d & 0.1 μM LHVS. The cells were incubated at 37° C. in a humidified incubator containing 5% CO2. After 24 hours the plates were centrifuged at 150×g for five minutes and the media removed. Cells were lysed by adding 65 ul of ice-cold phosphate buffered saline (PBS) containing 1% (v/v) Triton X-100 and protease inhibitors and incubated on ice for 20 minutes. The samples were centrifuged at 18 000×g for 15 minutes at 4° C. and the resulting supernatants collected and stored at −80° C. until required. After measurement of protein concentration using a micro-BCA protein assay all samples were diluted to […] and 50 l of each sample were coated overnight at 4° C. onto wells of high protein-binding 96-well plates. The wells were washed once with PBS (200 l/well) and then incubated at room temperature for 2 hours with 10 μg/ml mouse anti-CD74 Pin.1 monoclonal antibody (50 l/well) in PBS containing 0.05% (v/v) Tween-20 (PBS-T) and 2% (w/v) BSA (PBS-T/BSA). Unbound antibody was then removed by washing three times with PBS-T and followed by the addition of rabbit anti-mouse IgG antibody conjugated to horseradish peroxidase. After washing five times with PBS-T 100 μl of tetramethylbenzidine substrate was added to each well and incubated for 10 minutes on a plate shaker. The reaction was stopped by the addition of 100 μl of 1M hydrochloric acid. Antibody binding was quantified by measuring the optical density (OD, 450 nm) using a Molecular Devices Spectramax Plus. The OD of vehicle-only treated cells was removed from all values and the data was expressed as a percentage of the OD generated from the mean E64d/LHVS-treated cells. The potency of compounds (EC50) was measured by calculating the concentration of inhibitor required to generate 50% inhibition relative to E64d/LHVS-treated cells.

[2] = target: recombinant human Cathepsin S (Homo sapiens (Human), UniProt P25774); experiment: Cathepsin S assay procedure (fluorogenic substrate Z-Val-Val-Arg-AMC); assay type: biochemical
Chain of recombinant human Cathepsin S (P25774 115-331): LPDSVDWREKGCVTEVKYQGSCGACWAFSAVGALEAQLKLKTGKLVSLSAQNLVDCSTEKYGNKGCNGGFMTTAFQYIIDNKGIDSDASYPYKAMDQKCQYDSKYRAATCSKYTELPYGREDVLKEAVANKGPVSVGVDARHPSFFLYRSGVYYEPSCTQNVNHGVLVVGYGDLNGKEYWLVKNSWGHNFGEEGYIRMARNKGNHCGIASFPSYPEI
Description: 25 μl of a 2 mg/l solution of activated recombinant human cathepsin S, in assay buffer, is then added to the well, yielding a final inhibitor concentration of 10 μM.
Enzyme activity is determined by measuring the fluorescence of the liberated aminomethylcoumarin at […] using 390 nm excitation, at 20 minutes. Percentage enzyme activity is calculated by comparison of this activity to that of a solution containing no inhibitor.

Rat oral bioavailability = settings: Sprague-Dawley, in vivo, SD rat, read-out: Bioavailability F
[3] = read-out: pIC50 (negative logarithm of the IC50 concentration) for inhibition of human cathepsin S (converted)
[4] = pH5.5, fluorescence at 20 minutes, read-out: Cat S activity IC50

Compound | IC50 [2, 3] | other results
CN(C)C(=O)CN1CCN(CCOc2ccc(-c3cc4c(nnn4C)c(C#N)n3)cc2C(F)(F)F)CC1 [Example 37g, 2-(4-(2-(4-(4-cyano-1-methyl-1H-[1,2,3]triazolo[4,5-c]pyridin-6-yl)-2-(trifluoromethyl)phenoxy)ethyl)piperazin-1-yl)-N,N-dimethylacetamide dihydrochloride] | – | EC50 [1]: < 100 nM
Cn1nnc2c(C#N)nc(-c3ccc(OCCC4CCN(CC(C)(C)O)CC4)c(C(F)(F)F)c3)cc21 [Example 2d, 6-(4-(2-(1-(2-hydroxy-2-methylpropyl)piperidin-4-yl)ethoxy)-3-(trifluoromethyl)phenyl)-1-methyl-1H-[1,2,3]triazolo-[4,5-c]pyridine-4-carbonitrile hydrochloride] | < 10 nM | EC50 [1]: < 100 nM
Cn1nnc2c(C#N)nc(-c3ccc(OCCCN4CCN(CC(C)(C)O)CC4)c(C(F)(F)F)c3)cc21 [Example 36u, 6-(4-(3-(4-(2-hydroxy-2-methylpropyl)piperazin-1-yl)propoxy)-3-(trifluoromethyl)phenyl)-1-methyl-1H-[1,2,3]triazolo[4,5-c]pyridine-4-carbonitrile dihydrochloride] | < 10 nM | –
CN(CCCOc1ccc(-c2cc3c(nnn3C)c(C#N)n2)cc1C(F)(F)F)CC(=O)N(C)C [Example 36x, 2-((3-(4-(4-cyano-1-methyl-1H-[1,2,3]triazolo[4,5-c]pyridin-6-yl)-2-(trifluoro-methyl)phenoxy)propyl)(methyl)amino)-N,N-dimethylacetamide hydrochloride] | < 10 nM | –
Cn1cnc2c(C#N)nc(-c3ccc(CCCO)c(C(F)(F)F)c3)cc21 [WO 2009/010491, Example 15, reference compound] | – | IC50 [2, 4]: 234 nM
COC(=O)[C@@H](O)CN1CCC(CCOc2ccc(-c3cc4c(nnn4C)c(C#N)n3)cc2C(F)(F)F)CC1 [Example 39, (S)-methyl 3-(4-(2-(4-(4-cyano-1-methyl-1H-[1,2,3]triazolo[4,5-c]pyridin-6-yl)-2-(trifluoromethyl)phenoxy)ethyl)piperidin-1-yl)-2-hydroxypropanoate] | < 10 nM | –
CN(C)C(=O)CN1CCC(CCOc2ccc(-c3cc4c(nnn4C)c(C#N)n3)cc2C(F)(F)F)CC1.Cl [Example 2a, 6-(4-(2-(1-(2-dimethylamino-2-oxoethyl)piperidin-4-yl)ethoxy)-3-(trifluoromethyl)-phenyl)-1-methyl-1H-[1,2,3]triazolo[4,5-c]pyridine-4-carbonitrile hydrochloride] | < 10 nM | bioavailability (Rat oral bioavailability): 42%; EC50 [1]: < 100 nM; IC50 [2, 4]: 1.5 nM
Cn1nnc2c(C#N)nc(-c3ccc(OCCC4CCN(c5ccccn5)CC4)c(C(F)(F)F)c3)cc21 [Example 4a, 1-methyl-6-(4-(2-(1-(pyridin-2-yl)piperidin-4-yl)ethoxy)-3-(trifluoromethyl)phenyl)-1H-[1,2,3]triazolo[4,5-c]pyridine-4-carbonitrile hydrochloride] | < 10 nM | –
Cn1nnc2c(C#N)nc(-c3ccc(OCc4cc[n+]([O-])cc4)c(C(F)(F)F)c3)cc21 [Example 25, methyl-6-(4-(1-N-oxy-pyridin-4-ylmethoxy)-3-(trifluoromethyl)phenyl)-1H-[1,2,3]triazolo[4,5-c]pyridine-4-carbonitrile] | < 10 nM | –
Cn1nnc2c(C#N)nc(-c3ccc(OCc4ccccn4)c(C(F)(F)F)c3)cc21 [Example 20, 1-methyl-6-(4-(pyridin-2-ylmethoxy)-3-(trifluoromethyl)phenyl)-1H-[1,2,3]triazolo[4,5-c]pyridine-4-carbonitrile] | < 10 nM | –
Cn1nnc2c(C#N)nc(-c3ccc(OCCCO)c(C(F)(F)F)c3)cc21 [Example 32, 6-(4-(3-hydroxypropoxy)-3-(trifluoromethyl)phenyl)-1-methyl-1H-[1,2,3]triazolo[4,5-c]pyridine-4-carbonitrile] | < 10 nM | –
Cn1nnc2c(C#N)nc(-c3ccc(OCCCN4CCN(CCO)CC4)c(C(F)(F)F)c3)cc21 [Example 36t, 6-(4-(3-(4-(2-hydroxyethyl)piperazin-1-yl)propoxy)-3-(trifluoromethyl)phenyl)-1-methyl-1H-[1,2,3]triazolo[4,5-c]pyridine-4-carbonitrile dihydrochloride] | < 10 nM | –
CCN(CC)CCCOc1ccc(-c2cc3c(nnn3C)c(C#N)n2)cc1C(F)(F)F [Example 36q, 6-(4-(3-(diethylamino)propoxy)-3-(trifluoromethyl)phenyl)-1-methyl-1H-[1,2,3]triazolo[4,5-c]pyridine-4-carbonitrile] | < 10 nM | –
Cn1nnc2c(C#N)nc(-c3ccc(OCCC4CCN(Cc5ncco5)CC4)c(C(F)(F)F)c3)cc21 [Example 3a, 1-methyl-6-(4-(2-(1-(oxazol-2-ylmethyl)piperidin-4-yl)ethoxy)-3-(trifluoromethyl)phenyl)-1H-[1,2,3]triazolo[4,5-c]pyridine-4-carbonitrile] | < 10 nM | EC50 [1]: < 100 nM
Cc1cccc(N2CCC(CCOc3ccc(-c4cc5c(ncn5C)c(C#N)n4)cc3C(F)(F)F)CC2)n1 [EP 09150709.5 - Example 24c, reference compound] | – | IC50 [2, 4]: 26 nM
CN(C)C(=O)CN1CCC(CCOc2ccc(-c3cc4c(ncn4C)c(C#N)n3)cc2C(F)(F)F)CC1.Cl [EP 09150709.5 - Example 14d, reference compound] | – | bioavailability (Rat oral bioavailability): 9%; IC50 [2, 4]: 8.3 nM
Cn1nnc2c(C#N)nc(-c3ccc(OCc4ccc[n+]([O-])c4)c(C(F)(F)F)c3)cc21 [Example 23, methyl-6-(4-(1-N-oxy-pyridin-3-ylmethoxy)-3-(trifluoromethyl)phenyl)-1H-[1,2,3]triazolo[4,5-c]pyridine-4-carbonitrile] | < 10 nM | –
CN(C)C(=O)CN1CC(CCOc2ccc(-c3cc4c(nnn4C)c(C#N)n3)cc2C(F)(F)F)C1 [Example 31, 6-(4-(2-(1-(2-dimethylamino-2-oxoethyl)azetidin-3-yl)ethoxy)-3-(trifluoromethyl)phenyl)-1-methyl-1H-[1,2,3]triazolo[4,5-c]pyridine-4-carbonitrile Hydrochloride] | < 10 nM | –

From patent publication US9115126B2, “1H-[1,2,3]triazolo[4,5-c]pyridine-4-carbonitrile derivatives” (Merck Sharp & Dohme B.V., priority 2010, dated 2015)
